Measured values taken from patent US6521629B2, “Quinoline and quinazoline compounds useful in therapy” (Pfizer Inc., priority 1997, dated 2003).

Tested on: human prostate
Experiment: Contractile responses of human prostate
Format: cell-based
Details: isolated human prostatic tissue strips; antagonism of (−)-noradrenaline contractions; single antagonist concentration incubated 2 hours
Experimental: Contractile Responses of Human Prostate
Prostatic tissue was cut into longitudinal strips (approximately 3×2×10 mm) and suspended in organ baths under a resting tension of 1 g in Krebs Ringer bicarbonate of the following composition (mM): NaCl (119), KCl (4.7), CaCl2 (2.5), KH2PO4 (1.2), MgSO4 (1.2), NaHCO3 (25), glucose (11), and gassed with 95% O2/5% CO2. The solution also contained 10 […]. Tissues were exposed to a sensitising dose of (−)-noradrenaline ([…]) and washed over a 45 minute period. Isometric contractions were obtained in response to cumulative additions of (−)-noradrenaline to obtain control curves in all tissues. A further curve was then generated in the presence or absence of antagonist (incubated for 2 hours). Antagonist affinity estimates (pA2) were determined using a single concentration of competing antagonist, pA2=−log [A]/(DR−1) where the dose ratio (DR), relative to corresponding controls, was produced by a single concentration of antagonist [A], assuming competitive antagonism and Schild regression close to unity.

Compound: COc1cc2nc(N3CCCN(C(=O)N4CCOCC4)CC3)cc(N)c2c(-c2ncco2)c1OC [Example 28, 4-Amino-6,7-dimethoxy-2-[4-(4-morpholinecarbonyl)-1,4-diazepan-1-yl]-5-(oxazol-2-yl)quinoline]
- pA2 value: 9.2
